The results in this text go back to PMC5546590 (Biologics : Targets & Therapy, 2017).

The target of one data set is electric eel AChE (Electrophorus electricus, UniProt O42275). Put plainly: biochemical.
Data set [1] is described as follows: Solubility in water of isolated compounds.
Data set [2] deals with horse butyxylcholinesterase (Equus caballus, UniProt P81908). Put plainly: biochemical.
horse butyxylcholinesterase, sequence (P81908 whole entry): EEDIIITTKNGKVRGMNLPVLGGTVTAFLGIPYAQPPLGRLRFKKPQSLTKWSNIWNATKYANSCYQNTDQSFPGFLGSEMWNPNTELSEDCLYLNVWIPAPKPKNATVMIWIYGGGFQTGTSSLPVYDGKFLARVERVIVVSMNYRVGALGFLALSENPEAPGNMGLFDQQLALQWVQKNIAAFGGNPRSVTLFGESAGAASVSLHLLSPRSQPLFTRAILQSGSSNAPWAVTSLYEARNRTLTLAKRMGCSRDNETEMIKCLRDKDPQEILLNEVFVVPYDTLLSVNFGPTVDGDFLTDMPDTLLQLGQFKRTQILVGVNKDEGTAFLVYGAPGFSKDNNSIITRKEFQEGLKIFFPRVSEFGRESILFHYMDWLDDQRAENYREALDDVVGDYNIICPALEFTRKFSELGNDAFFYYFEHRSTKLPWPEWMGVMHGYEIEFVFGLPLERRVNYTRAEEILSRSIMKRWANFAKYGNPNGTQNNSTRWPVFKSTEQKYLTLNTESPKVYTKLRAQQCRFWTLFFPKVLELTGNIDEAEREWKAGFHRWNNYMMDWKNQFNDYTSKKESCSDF

electric eel AChE, sequence (O42275 24-633): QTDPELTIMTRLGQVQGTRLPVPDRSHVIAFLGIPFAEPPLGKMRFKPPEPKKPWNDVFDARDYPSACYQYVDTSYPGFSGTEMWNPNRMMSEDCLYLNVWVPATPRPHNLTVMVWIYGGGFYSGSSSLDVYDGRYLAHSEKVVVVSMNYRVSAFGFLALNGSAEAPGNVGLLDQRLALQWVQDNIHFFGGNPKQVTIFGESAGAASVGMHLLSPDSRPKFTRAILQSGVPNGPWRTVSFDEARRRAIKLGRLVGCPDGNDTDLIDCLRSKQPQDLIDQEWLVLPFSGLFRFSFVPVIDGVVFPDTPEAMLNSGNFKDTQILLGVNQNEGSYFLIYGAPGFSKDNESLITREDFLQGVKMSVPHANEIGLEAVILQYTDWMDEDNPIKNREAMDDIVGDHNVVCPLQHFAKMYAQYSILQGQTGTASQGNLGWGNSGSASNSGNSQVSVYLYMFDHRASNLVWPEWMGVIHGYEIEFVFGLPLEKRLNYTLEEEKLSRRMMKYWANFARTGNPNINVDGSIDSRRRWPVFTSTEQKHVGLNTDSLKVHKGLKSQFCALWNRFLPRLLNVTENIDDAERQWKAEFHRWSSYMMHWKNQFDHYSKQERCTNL

Usually IC50 stands for the midpoint of a concentration-inhibition curve. High values mean weaker potency, low ones greater potency. In the case of `CC(C)[C@H](C)CC[C@@H](C)[C@H]1CC[C@H]2[C@@H]3CC=C4C[C@@H](O)CC[C@]4(C)[C@H]3CC[C@]12C` [Compound 2, campesterol], the results for the IC50 (on electric eel AChE; in data set [2]) were 4.72 µM and 10.2 µM, respectively. Moreover, the Solubility in water entry in data set [1] is reported as “Soluble”.
Consider `C=C(C)[C@@H]1CC[C@]2(CO)CC[C@]3(C)[C@H](CC[C@@H]4[C@@]5(C)CC[C@H](O)C(C)(C)[C@@H]5CC[C@]43C)[C@@H]12` [Compound 1, betulin], for which the results for the IC50 (against electric eel AChE; in data set [2]) were 1.99 µM and 10.5 µM, respectively.
